{"source": "patent US20240425523A1", "about": "“Compounds for the Degradation of EGFR Kinase” (Beigene Switzerland GMBH, priority 2023, published 2024)", "format_in_all_cases": "cell-based", "settings_in_all_cases": "16 h treatment", "key": {"[1]": {"biological_target": "T1, EGFR L858R (BaF3-L858R cells) (Homo sapiens, UniProt P00533, L858R)", "T1 construct": "host or cells: BaF3", "assay": "Cell degradation of EGFR, HTRF assay, BaF3-L858R cells", "how_it_was_run": "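EGFR L858R levels measured by HTRF antibody pair in lysed BaF3-L858R cells after 16 h compound exposure (8-point 5-fold series from 10 uM final, 37° C). Degradation is relative to DMSO-only cells; DC50 fitted with Hill equation, Dmax taken as the largest percent loss.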"}, "[2]": {"biological_target": "T2, EGFR-L858R/C797S (H1975-clone #8 cells) (Homo sapiens, UniProt P00533, C797S/L858R)", "T2 construct": "expressed in transfected cells; host or cells: H1975 (endogenous EGFR knocked out, clone #8)", "assay": "Cell degradation of EGFR, HTRF assay, H1975-clone#8 (L858R/C797S) cells"}, "[3]": {"biological_target": "T3, p-EGFR L858R (BaF3-L858R cells) (Homo sapiens, UniProt P00533, L858R)", "T3 construct": "host or cells: BaF3", "assay": "Cell p-EGFR inhibition assay, HTRF, BaF3-L858R cells", "how_it_was_run": "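BaF3-L858R cells treated 16 h at 37 °C, 5% CO2 with compound from 10 uM top, 5-fold dilutions, 8 doses, in 0.1% DMSO medium. Lysates read overnight by HTRF p-EGFR antibodies; IC50 fitted to four-parameter curve against DMSO high control.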"}, "[4]": {"biological_target": "p-EGFR Del19/C797S (H1975-clone #23 cells) (Homo sapiens, UniProt P00533)", "assay": "Cell p-EGFR inhibition assay, HTRF, H1975-clone#23 (DEL19/C797S) cells", "how_it_was_run": "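Phospho-EGFR read by overnight HTRF on lysates, normalized to DMSO-treated high control; IC50, Hill slope and Imax fitted. Compounds were applied for 16 h (10 uM top, 5-fold steps, 8 doses) to an H1975 single clone carrying only exogenous Del19/C797S EGFR after sgRNA knockout of endogenous copies.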"}, "[5]": {"settings": "maximum percentage of degradation"}, "[6]": {"settings": "maximum percentage of pEGFR inhibition"}}, "data": [{"smiles": "Cc1cc2cc(n1)-c1c(C)nn(C)c1OC[C@H]1CC[C@H](C1)CN1/C(=N/C2=O)Nc2ccc(N3CCN(C4CCN(c5cc(F)c([C@H]6CCC(=O)NC6=O)c(F)c5)CC4)C[C@@H]3CF)cc21", "note": "[Example 211, (R)-3-(2,6-difluoro-4-(4-((R)-3-(fluoromethyl)-4-((7R,7^3S,E)-1^1,1^3,2^6-trimethyl-3-oxo-5^2,5^3-dihydro-1^1H,5^1H-9-oxa-4-aza-5(2,1)-benzo[d]imidazola-2(2,4)-pyridina-1(4,5)-pyrazola-7(1,3)-cyclopentanacyclononaphane-5^6-yl)piperazin-1-yl)piperidin-1-yl)phenyl)piperidine-2,6-dione]", "values": [{"measurement": "DC50", "setting": "[1]; EGFR degradation", "result": 0.73, "unit": "nM"}, {"measurement": "Dmax", "setting": "[1]; [5]", "result": 91.3, "unit": "%"}, {"measurement": "DC50", "setting": "[2]; EGFR degradation", "result": 3.07, "unit": "nM"}, {"measurement": "Dmax", "setting": "[2]; [5]", "result": 88.8, "unit": "%"}, {"measurement": "Imax (%)", "setting": "[3]; [6]", "result": 89.34, "unit": "%"}, {"measurement": "IC50", "setting": "[3]; pEGFR inhibition", "result": 2.05, "unit": "nM"}, {"measurement": "Imax (%)", "setting": "[4]; [6]", "result": 99.96, "unit": "%"}, {"measurement": "IC50", "setting": "[4]; pEGFR inhibition", "result": 1.6, "unit": "nM"}]}]}
